Test results as given in patent US12043599B2, “Herbicidal compounds” (SYNGENTA PARTICIPATIONS AG, priority 2018, dated 2024).

How the values were obtained:
Format in all cases: in vivo
Settings in all cases: 250 g/h, evaluated after 13 days
[1] = system: Alopecurus myosuroides (ALOMY); experiment: Pre-emergence herbicidal glasshouse test, percentage damage
In short: (§1)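 Each compound is sprayed at 250 g/h on pots either 1 or 8 days after sowing (pre- and post-emergence respectively). Growth under controlled glasshouse conditions, 24/16 °C day/night and 65% humidity, continues for 13 days before damage is rated on a five-point scale.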

Avena fatua (AVEFA) [2] = experiment: as above
In short: as §1

[3] = system: Echinochloa crus-galli (ECHCG); experiment: as above
In short: as §1

Lolium perenne (LOLPE) [4] = experiment: as above
In short: as §1

Setaria faberi (SETFA) [5] = experiment: as above
In short: as §1

Setaria faberi (SETFA) [6] = experiment: Post-emergence herbicidal glasshouse test, percentage damage
In short: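 Percentage damage was scored 13 days after treatment on a five-point scale (1=0-19% to 5=80-100%). Treatments were post-emergence sprays on 8-day-old wheat, barley and SETFA plants in a glasshouse (24/16 °C day/night, 14 h light, 65% humidity), using acetone/water 50:50 with 0.5% Tween 20 at the stated rates. Wheat additionally received cloquintocet-mexyl safener at 50 g/ha.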

[7] = system: Alopecurus myosuroides (ALOMY); experiment: as above
In short: as §1

Avena fatua (AVEFA) [8] = experiment: as above
In short: as §1

Lolium perenne (LOLPE) [9] = experiment: as above
In short: as §1

[10] = system: Echinochloa crus-galli (ECHCG); experiment: as above
In short: as §1

Structure (SMILES)	ALOMY PRE percentage damage (five point scale) [1]	AVEFA PRE percentage damage (five point scale) (Avena fatua (AVEFA) [2])	ECHCG PRE percentage damage (five point scale) [3]	LOLPE PRE percentage damage (five point scale) (Lolium perenne (LOLPE) [4])	SETFA PRE percentage damage (five point scale) (Setaria faberi (SETFA) [5])	SETFA POST percentage damage (five point scale) (Setaria faberi (SETFA) [6])	ALOMY POST percentage damage (five point scale) [7]	AVEFA POST percentage damage (five point scale) (Avena fatua (AVEFA) [8])	LOLPE POST percentage damage (five point scale) (Lolium perenne (LOLPE) [9])	ECHCG POST percentage damage (five point scale) [10]
CC#Cc1cc(C)c(C2C(=O)CC3(CCN(S(=O)(=O)c4ccccc4F)CC3)CC2=O)c(C)c1 [Compound A17]	5 (5=80-100%)	5 (5=80-100%)	5 (5=80-100%)	5 (5=80-100%)	5 (5=80-100%)	5 (5=80-100%)	5 (5=80-100%)	5 (5=80-100%)	5 (5=80-100%)	
CC#Cc1cc(C)c(C2=C(OC(=O)OC)CC3(CCN(C(=O)C(C)O)CC3)CC2=O)c(C)c1 (stereo not drawn) [Compound P31]	5 (5=80-100%)	5 (5=80-100%)	5 (5=80-100%)	5 (5=80-100%)	5 (5=80-100%)	5 (5=80-100%)	5 (5=80-100%)	5 (5=80-100%)	5 (5=80-100%)	
CC#Cc1cc(C)c(C2=C(OC(=O)OC)CC3(CCN(C(=O)C4(C#N)CC4)CC3)CC2=O)c(C)c1 [Compound P33]	5 (5=80-100%)	5 (5=80-100%)	5 (5=80-100%)	5 (5=80-100%)	5 (5=80-100%)	5 (5=80-100%)	5 (5=80-100%)	5 (5=80-100%)	5 (5=80-100%)	
CC#Cc1cc(C)c(C2C(=O)CC3(CCN(C(=O)NC(=O)c4ccccn4)CC3)CC2=O)c(OC)c1 [Compound A79]	4 (4=60-79%)	5 (5=80-100%)	4 (4=60-79%)	5 (5=80-100%)	4 (4=60-79%)	5 (5=80-100%)	5 (5=80-100%)	5 (5=80-100%)	5 (5=80-100%)	
CC#Cc1cc(C)c(C2C(=O)CC3(CCN(S(=O)(=O)c4cn(C)nc4C(F)(F)F)CC3)CC2=O)c(C)c1 [Compound A40]	5 (5=80-100%)	5 (5=80-100%)	5 (5=80-100%)	5 (5=80-100%)	5 (5=80-100%)	5 (5=80-100%)	5 (5=80-100%)	5 (5=80-100%)	5 (5=80-100%)	
CC#Cc1cc(C)c(C2C(=O)CC3(CCN(c4cncnc4)CC3)CC2=O)c(C)c1 [Compound A87]	4 (4=60-79%)	3 (3=40-59%)	5 (5=80-100%)	5 (5=80-100%)	5 (5=80-100%)	5 (5=80-100%)	5 (5=80-100%)	5 (5=80-100%)	5 (5=80-100%)	
CC#Cc1cc(C)c(C2=C(OC(=O)OC)CC3(CCN(S(=O)(=O)c4ccccn4)CC3)CC2=O)c(C)c1 [Compound P34]	5 (5=80-100%)	5 (5=80-100%)	5 (5=80-100%)	5 (5=80-100%)	5 (5=80-100%)	5 (5=80-100%)	5 (5=80-100%)	5 (5=80-100%)	5 (5=80-100%)	
CC#Cc1cc(C)c(C2C(=O)CC3(CCN(C(=O)c4ccc(C#N)cn4)CC3)CC2=O)c(C)c1 [Compound A20]	5 (5=80-100%)	5 (5=80-100%)	5 (5=80-100%)	5 (5=80-100%)	5 (5=80-100%)	5 (5=80-100%)	5 (5=80-100%)	5 (5=80-100%)	5 (5=80-100%)	
CC#Cc1cc(C)c(C2=C(OC(=O)c3ncccn3)CC3(CCN(C(=O)c4ncccn4)CC3)CC2=O)c(C)c1 [Compound P23]	5 (5=80-100%)	4 (4=60-79%)	5 (5=80-100%)	5 (5=80-100%)	5 (5=80-100%)	5 (5=80-100%)	5 (5=80-100%)	5 (5=80-100%)	5 (5=80-100%)	
CC#Cc1cc(C)c(C2=C(OC(=O)OC)CC3(CCN(C(=O)C(C)(C)OC)CC3)CC2=O)c(C)c1 [Compound P26]	5 (5=80-100%)	5 (5=80-100%)	5 (5=80-100%)	5 (5=80-100%)	5 (5=80-100%)	5 (5=80-100%)	5 (5=80-100%)	5 (5=80-100%)	5 (5=80-100%)	
CC#Cc1cc(C)c(C2=C(OC(=O)OC)CC3(CCN(C(=O)C4COC4)CC3)CC2=O)c(C)c1 [Compound P44]	5 (5=80-100%)	5 (5=80-100%)	5 (5=80-100%)	5 (5=80-100%)	5 (5=80-100%)	5 (5=80-100%)		5 (5=80-100%)	5 (5=80-100%)	5 (5=80-100%)
CC#Cc1cc(C)c(C2=C(OC(=O)OC)CC3(CCN(C(=O)C4CC4)CC3)CC2=O)c(C)c1 [Compound P42]	5 (5=80-100%)	5 (5=80-100%)	5 (5=80-100%)	5 (5=80-100%)	5 (5=80-100%)	5 (5=80-100%)		5 (5=80-100%)	5 (5=80-100%)	5 (5=80-100%)
